This is an account of results in US20060034848A1, “Methods and compositions for treating Alzheimer's disease” (priority 2003, published 2006).

“Also recorded” adds a separate entry of the source.

For this experiment, the system named is LRP-CTF. In words: LRP C-terminal fragment (CTF) western after DAPT treatment. Type of experiment: cell-based, mouse. As to conditions: N2a cells cotransfected with LC-myc and empty vector, BACE or catalytically inactive BACE; DAPT treatment for 12 h vs vehicle. The protocol: FIG. 11 depicts a LRP CTF western. […] Shown is the intensity of a representative blot out four experiments without DAPT treatment and two with DAPT treatment.
The proteins were transferred to immobilon-P membrane (Millipore, Bedford, Mass.). Staining was performed according to Licor odyssey instructions and LRP light chain was detected by rabbit anti-myc Ab with 680 gt anti rabbit secondary and visualized on the Licor odyssey.
After cotransfection of LRP with BACE we saw an increase of LRP-CTF as well as in non-treated cells and even more after DAPT treatment.

On to `C[C@H](NC(=O)Cc1cc(F)cc(F)c1)C(=O)N[C@H](C(=O)OC(C)(C)C)c1ccccc1` [DAPT], for which the “LRP-CTF 25 kDa band intensity (western blot)” value was “increase of the LRP-CTF 25 kDa band; also recorded: increase of CTF intensity”.
